Measured values as given in EP0633893B1, “17-SUBSTITUTED STEROIDS USEFUL IN CANCER TREATMENT” (priority 1992, dated 1993).
Like-named read-outs stand apart in the source and are kept apart here. One block for each compound: values may come before it.

How the values were obtained:
[1] = biological target: T1, C17-C20 lyase (Homo sapiens, UniProt P05093); assay: Determination of C17-C20 lyase (human testicular microsomes, 3H-17α-hydroxyprogesterone substrate, HPLC); assay type: biochemical
T1 construct: The microsomal pellet was then resuspended in 50mM sodium phosphate pH 7.4/glycerol (3/1 v/v) and stored in aliquots in liquid nitrogen; from tissue; host or cells: human testis microsomes
T1 sequence (P05093 1-508): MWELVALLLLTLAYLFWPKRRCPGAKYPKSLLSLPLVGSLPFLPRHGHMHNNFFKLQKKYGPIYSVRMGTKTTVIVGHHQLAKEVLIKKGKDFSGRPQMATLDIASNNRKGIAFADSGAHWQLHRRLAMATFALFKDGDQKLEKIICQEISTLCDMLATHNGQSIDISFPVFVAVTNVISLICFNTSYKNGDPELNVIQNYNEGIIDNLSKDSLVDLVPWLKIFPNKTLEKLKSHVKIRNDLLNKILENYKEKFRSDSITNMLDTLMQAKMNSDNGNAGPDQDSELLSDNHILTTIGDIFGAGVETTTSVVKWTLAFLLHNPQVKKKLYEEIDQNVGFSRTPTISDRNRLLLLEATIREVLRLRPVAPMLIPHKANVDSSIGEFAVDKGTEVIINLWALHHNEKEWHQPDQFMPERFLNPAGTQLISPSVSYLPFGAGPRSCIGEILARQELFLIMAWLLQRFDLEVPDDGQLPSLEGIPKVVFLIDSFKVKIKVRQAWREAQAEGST

[2] = biological target: T2, aromatase (Homo sapiens, UniProt P11511); assay: biochemical
T2 sequence (P11511 1-503): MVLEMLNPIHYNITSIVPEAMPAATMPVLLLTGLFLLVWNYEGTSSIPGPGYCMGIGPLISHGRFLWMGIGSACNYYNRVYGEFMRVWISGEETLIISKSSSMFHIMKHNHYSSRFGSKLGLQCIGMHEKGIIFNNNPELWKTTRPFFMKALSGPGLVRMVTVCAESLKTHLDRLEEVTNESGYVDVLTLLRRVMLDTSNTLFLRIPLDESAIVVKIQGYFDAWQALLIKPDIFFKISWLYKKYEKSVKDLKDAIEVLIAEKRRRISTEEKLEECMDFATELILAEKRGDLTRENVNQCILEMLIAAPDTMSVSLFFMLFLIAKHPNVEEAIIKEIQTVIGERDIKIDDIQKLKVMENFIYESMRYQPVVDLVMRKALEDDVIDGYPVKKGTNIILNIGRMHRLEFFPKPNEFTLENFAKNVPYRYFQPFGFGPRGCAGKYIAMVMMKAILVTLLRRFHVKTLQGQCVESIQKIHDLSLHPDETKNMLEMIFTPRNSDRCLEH

[3] = test system: Male HWT mice; assay type: in vivo; conditions: daily for 2 weeks, mean ± standard error
Method: (§1) Male HWT mice, 12 weeks old, were treated daily for 2 weeks, with 5 animals per treatment group. The test compounds were the compound of Examples 1 and 4 (as representative of compounds of the invention having the pregenolone-like and progesterone-like skeletons respectively). Ketoconazole was also tested at three different doses. The test compounds were made up in 5% benzyl alcohol, 95% safflower oil, and were given i.p.. In addition to an untreated control group of animals, there was also a solvent control group which received the same volume of liquid as the test group (5ml/kg) but no test compound. All animals were sacrificed 24 hours after the last injection. Blood was collected by cardiac puncture into heparinized tubes, and the plasma used for RIA (radio immunoassay) of testosterone and luteinising hormone. The following organs were removed and weighed: adrenals, prostate, seminal vesicles, testes, kidneys. There was no significant body weight loss in any group of mice during the experiments.

[4] = test system: Male HWT mice; conditions: mouse, in vivo; for Post mortem examination: appearance of organs / Post mortem examination: deposits: ip
Method: as §1
In Ketoconazole-treated animals, adhesions were found in 2/5,2/5,4/5 of the low/middle/top dose groups. […] The livers were brown in the middle/top dose groups.

[5] = biological target: T3, 17α-hydroxylase (Homo sapiens, UniProt P05093); assay: Determination of 17α-hydroxylase (human testicular microsomes, 3H-progesterone substrate, HPLC); assay type: biochemical
T3 construct: The microsomal pellet was then resuspended in 50mM sodium phosphate pH 7.4/glycerol (3/1 v/v) and stored in aliquots in liquid nitrogen; from tissue; host or cells: human testis microsomes
T3 sequence (P05093 1-508): T1 sequence (P05093 1-508)

[6] = test system: testosterone; assay: In vivo endocrine test in mice: RIA of plasma testosterone; conditions: 2 weeks, plasma 24 hours after last injection, mean ± standard error
[7] = test system: luteinising hormone; assay: In vivo endocrine test in mice: RIA of plasma luteinising hormone; conditions: 2 weeks, plasma 24 hours after last injection, mean ± standard error
Method: as §1

[8] = approx. 4nM enzyme, read-out: IC50 (µM) Lyase
[9] = approx. 4nM enzyme, read-out: IC50 (µM) Hydroxylase
[10] = 25nM lyase, read-out: IC50 (µM) Lyase
[11] = 10nM hydroxylase, read-out: IC50 (µM) Hydroylase

SMILES: C[C@]12CCC(=O)C=C1CC[C@@H]1[C@@H]2CC[C@]2(C)C(c3cccnc3)=CC[C@@H]12 [Ex. 4, 17-(3-Pyridyl)androsta-4,16-dien-3-one]
IC50 [1, 8]: 0.0021 µM | IC50 [2]: 1000 nM | Mean weight Kidneys ([3]; 0.02 mmol/kg/day i.p.): 599 ± 29 mg | Mean weight Prostate ([3]; 0.02 mmol/kg/day i.p.): 5.9 ± 0.8 mg | Mean weight Seminal Vesicles ([3]; 0.02 mmol/kg/day i.p.): 108 ± 4 mg | Mean weight Testes ([3]; 0.02 mmol/kg/day i.p.): 117 ± 9 mg | Mean weight Kidneys ([3]; 0.1 mmol/kg/day i.p.): 549 ± 28 mg | Mean weight Prostate ([3]; 0.1 mmol/kg/day i.p.): 6.4 ± 0.5 mg | Mean weight Seminal Vesicles ([3]; 0.1 mmol/kg/day i.p.): 61 ± 9 mg | Mean weight Testes ([3]; 0.1 mmol/kg/day i.p.): 105 ± 5 mg | Mean weight Kidneys ([3]; 0.5 mmol/kg/day i.p.): 468 ± 15 mg | Mean weight Prostate ([3]; 0.5 mmol/kg/day i.p.): 4.1 ± 0.5 mg | Mean weight Seminal Vesicles ([3]; 0.5 mmol/kg/day i.p.): 25 ± 1 mg | Mean weight Testes ([3]; 0.5 mmol/kg/day i.p.): 59 ± 2 mg | Post mortem examination: appearance of organs [4]: all organs looked normal | Post mortem examination: deposits [4]: white deposits throughout the abdomen | IC50 [5, 9]: 0.0028 µM | Testosterone ([6]; 0.02Mmol/Kg/Day i.p.): 4.5 ± 0.3 nM | Testosterone ([6]; 0.5Mmol/Kg/Day i.p.): 0.4 ± 0.1 nM | Testosterone ([6]; i.p.): 3.5 ± 1.0 nM

SMILES: C[C@]12CC[C@@H](O)C[C@@H]1CC[C@@H]1[C@@H]2CC[C@]2(C)C(c3cccnc3)=CC[C@@H]12 [Ex. 8, 17-(3-Pyridyl)-5α-androst-16-en-3α-ol]
IC50 [1]: 0.0025 µM | IC50 [5]: 0.0043 µM

SMILES: C[C@]12CCC(=O)C[C@@H]1CC[C@@H]1[C@@H]2CC[C@]2(C)C(c3cccnc3)=CC[C@@H]12 [Ex. 9, 17-(3-Pyridyl)-5α-androst-16-en-3-one]
IC50 [1]: 0.003 µM

SMILES: C[C@]12CCC(=O)C=C1[C@@H](F)C[C@@H]1[C@@H]2CC[C@]2(C)C(c3cccnc3)=CC[C@@H]12 [Ex. 13, 6α-Fluoro-17-(3-pyridyl)androsta-4,16-dien-3-one]
IC50 [1, 8]: 0.0032 µM | IC50 [5, 9]: 0.0053 µM

SMILES: C[C@]12CCC(=O)C=C1CC[C@@H]1[C@@H]2C(=O)C[C@]2(C)C(c3cccnc3)=CC[C@@H]12 [Ex. 10, 17-(3-Pyridyl)androsta-4,16-diene-3,11-dione]
IC50 [1, 8]: 0.0025 µM | IC50 [5, 9]: 0.0091 µM

SMILES: C[C@]12CC[C@H](O)CC1=CC[C@@H]1[C@@H]2CC[C@]2(C)C(Cc3ccccn3)=CC[C@@H]12 [Example 2-picolyl, reference compound]
IC50 [1, 10]: > 10 µM | IC50 [5, 11]: > 10 µM

SMILES: C[C@]12CC[C@H](O)CC1=CC[C@@H]1[C@@H]2CC[C@]2(C)C(c3cccnc3)=CC[C@@H]12 [Ex. 2, 17-(3-Pyridyl)androsta-5,16-dien-3β-ol]
IC50 [1, 8]: 0.0029 µM | IC50 [5, 9]: 0.004 µM

SMILES: CC(=O)O[C@H]1CC[C@@]2(C)C(=CC[C@@H]3[C@@H]2CC[C@]2(C)C(c4cccnc4)=CC[C@@H]32)C1 [Ex. 1, 3β-Acetoxy-17-(3-pyridyl)androsta-5,16-diene]
IC50 [2]: > 20000 nM | Mean weight Kidneys ([3]; 0.02 mmol/kg/day i.p.): 604 ± 24 mg | Mean weight Prostate ([3]; 0.02 mmol/kg/day i.p.): 8.0 ± 0.6 mg | Mean weight Seminal Vesicles ([3]; 0.02 mmol/kg/day i.p.): 136 ± 4 mg | Mean weight Testes ([3]; 0.02 mmol/kg/day i.p.): 134 ± 4 mg | Mean weight Kidneys ([3]; 0.1 mmol/kg/day i.p.): 500 ± 8 mg | Mean weight Prostate ([3]; 0.1 mmol/kg/day i.p.): 5.3 ± 0.3 mg | Mean weight Seminal Vesicles ([3]; 0.1 mmol/kg/day i.p.): 51 ± 6 mg | Mean weight Testes ([3]; 0.1 mmol/kg/day i.p.): 95 ± 3 mg | Mean weight Kidneys ([3]; 0.5 mmol/kg/day i.p.): 449 ± 12 mg | Mean weight Prostate ([3]; 0.5 mmol/kg/day i.p.): 5.6 ± 0.6 mg | Mean weight Seminal Vesicles ([3]; 0.5 mmol/kg/day i.p.): 25 ± 2 mg | Mean weight Testes ([3]; 0.5 mmol/kg/day i.p.): 56 ± 2 mg | Post mortem examination: appearance of organs [4]: all organs looked normal | Post mortem examination: deposits [4]: oil/white deposits i.p. | LH ([7]; 0.02Mmol/Kg/Day i.p.): 3.4 ± 0.5 ng/mL | LH ([7]; 0.1Mmol/Kg/Day i.p.): 2.55 ± 0.45 ng/mL | LH ([7]; 0.5Mmol/Kg/Day i.p.): 2.25 ± 0.67 ng/mL | Testosterone ([6]; 0.02Mmol/Kg/Day i.p.): 2.7 ± 0.5 nM | Testosterone ([6]; 0.5Mmol/Kg/Day i.p.): 0.1 ± 0.0 nM | Testosterone ([6]; i.p.): 0.2 ± 0.1 nM

SMILES: C[C@]12CCC(=O)C=C1[C@H](F)C[C@@H]1[C@@H]2CC[C@]2(C)C(c3cccnc3)=CC[C@@H]12 [Ex. 12, 6β-Fluoro-17-(3-pyridyl)androsta-4,16-dien-3-one]
IC50 [1, 8]: 0.0022 µM | IC50 [5, 9]: 0.0033 µM

SMILES: CC(=O)N1CCN(c2ccc(OCC3COC(Cn4ccnc4)(c4ccc(Cl)cc4Cl)O3)cc2)CC1 (stereo not drawn) [Ketoconazole, reference compound]
Mean weight Kidneys ([3]; 0.01mmol/kg/day i.p.): 637 ± 22 mg | Mean weight Prostate ([3]; 0.01mmol/kg/day i.p.): 9.1 ± 0.8 mg | Mean weight Seminal Vesicles ([3]; 0.01mmol/kg/day i.p.): 235 ± 18 mg | Mean weight Testes ([3]; 0.01mmol/kg/day i.p.): 141 ± 5 mg | Mean weight Kidneys ([3]; 0.225 mmol/kg/day i.p.): 574 ± 23 mg | Mean weight Prostate ([3]; 0.225 mmol/kg/day i.p.): 10.8 ± 1.4 mg | Mean weight Seminal Vesicles ([3]; 0.225 mmol/kg/day i.p.): 171 ± 5 mg | Mean weight Testes ([3]; 0.225 mmol/kg/day i.p.): 127 ± 7 mg | Mean weight Kidneys ([3]; 0.5 mmol/kg/day i.p.): 710 ± 30 mg | Mean weight Prostate ([3]; 0.5 mmol/kg/day i.p.): 9.3 ± 0.9 mg | Mean weight Seminal Vesicles ([3]; 0.5 mmol/kg/day i.p.): 179 ± 20 mg | Mean weight Testes ([3]; 0.5 mmol/kg/day i.p.): 133 ± 6 mg | Post mortem examination: livers [4]: brown | LH ([7]; 0.1Mmol/Kg/Day i.p.): 0.39 ± 0.14 ng/mL | LH ([7]; 0.225Mmol/Kg/Day i.p.): 0.75 ± 0.02 ng/mL | LH ([7]; 0.5Mmol/Kg/Day i.p.): 0.76 ± 0.03 ng/mL

IC50 [1, 8]: 0.0056 µM | IC50 [5, 9]: 0.0125 µM
SMILES: C[C@]12CCC=CC1=CC[C@@H]1[C@@H]2CC[C@]2(C)C(c3cccnc3)=CC[C@@H]12 [Ex. 3, 17-(3-Pyridyl)androsta-3,5,16-triene]

SMILES: C[C@]12CC[C@@H]3c4ccc(O)cc4CC[C@H]3[C@@H]1CC=C2c1cccnc1 [Ex. 6, 17-(3-Pyridyl)estra-1,3,5[10],16-tetraen-3-ol]
IC50 [1, 8]: 0.0018 µM | IC50 [5, 9]: 0.0026 µM

SMILES: C[C@]12CC[C@H](O)CC1=CC[C@@H]1[C@@H]2CC[C@]2(C)C(c3ccccn3)=CC[C@@H]12 [Example 2-Pyridyl, reference compound]
IC50 [1]: 0.13 µM | IC50 [5]: 0.32 µM

SMILES: C[C@]12CC[C@H](O)CC1=CC[C@@H]1[C@@H]2CC[C@]2(C)C(c3ccncc3)=CC[C@@H]12 [Example 4-pyridyl, reference compound]
IC50 [1, 10]: 2 µM | IC50 [5, 11]: 5 µM
